Results taken from PubChem BioAssay AID1259411 (Chemical Carcinogenesis Research Information System (CCRIS), 2018).
Active and inactive are the calls of the source. No rule for the calls is given here.

Test system: rodent carcinogenicity bioassays, tumor incidence
Experiment: CCRIS carcinogenicity studies
Method in brief: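 NCI-built, expert-reviewed records of carcinogenicity and related test outcomes (mutagenicity, tumor promotion/inhibition) compiled from published and report sources, historical span 1985-2011, not updated.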

O=NN(CCCC(F)(F)F)CCCC(F)(F)F
carcinogen call (Species: RAT, Strain/Sex: SPRAGUE-DAWLEY/MALE,FEMALE, Route: GAVAGE, Dose: 1.5, 7.5% IN VEGETABLE OIL 2/WK FOR UP TO 32 WK, Tumor Site: Type of Lesion: LIVER: HEPATOCELLULAR CARCINOMA, LUNG: SQUAMOUS CELL CARCINOMA, ADENOCARCINOMA): active; positive

[O]=[Co]
carcinogen call (Species: RAT, Strain/Sex: SPRAGUE-DAWLEY/FEMALE, Route: INTRATRACHEAL, Dose: 0, 2, 10 MG/KG EVERY 14 D FOR TOTAL DOSES OF 0, 78, 390 MG/KG (STUDY DURATION: 2 YR), Dose: 0, 2, 10 MG/KG EVERY 14 D FOR TOTAL DOSES OF 0, 78, 390 MG/KG (STUDY DURATION: 2 YR)): inactive; negative
carcinogen call (Species: RAT, Strain/Sex: SPRAGUE-DAWLEY/MALE,FEMALE, Route: INTRAPERITONEAL, Dose: 0, 200 MG/KG EVERY 2 MO FOR TOTAL DOSES OF 0, 600 MG/KG, Dose: 0, 200 MG/KG EVERY 2 MO FOR TOTAL DOSES OF 0, 600 MG/KG, Tumor Site: Type of Lesion: PERITONEUM: TUMORS): active; positive
carcinogen call (Species: RAT, Strain/Sex: SPRAGUE-DAWLEY/MALE, Route: INTRATRACHEAL, Dose: 0, 2, 10 MG/KG EVERY 14 D FOR TOTAL DOSES OF 0, 78, 390 MG/KG (STUDY DURATION: 2 YR), Dose: 0, 2, 10 MG/KG EVERY 14 D FOR TOTAL DOSES OF 0, 78, 390 MG/KG (STUDY DURATION: 2 YR), Tumor Site: Type of Lesion: LUNG: TUMOR): active; positive
carcinogen call (Species: RAT, Strain/Sex: SPRAGUE-DAWLEY/MALE, Route: SUBCUTANEOUS, Dose: 0, 2 MG/KG 5/WK FOR TOTAL DOSES OF 0, 1000 MG/KG (STUDY DURATION: 2 YR), Dose: 0, 2 MG/KG 5/WK FOR TOTAL DOSES OF 0, 1000 MG/KG (STUDY DURATION: 2 YR), Tumor Site: Type of Lesion: SUBCUTANEOUS TISSUE: TUMORS): active; positive
carcinogen call (Species: RAT, Strain/Sex: SPRAGUE-DAWLEY/MALE, Route: SUBCUTANEOUS, Dose: 0, 10 MG/KG 1/WK FOR TOTAL DOSES OF 0, 1000 MG/KG (STUDY DURATION: 2 YR), Dose: 0, 10 MG/KG 1/WK FOR TOTAL DOSES OF 0, 1000 MG/KG (STUDY DURATION: 2 YR), Tumor Site: Type of Lesion: SUBCUTANEOUS TISSUE: TUMORS): active; positive

NS(=O)(=O)c1cc(C(=O)O)c(NCc2ccco2)cc1Cl
carcinogen call (Species: MOUSE, Strain/Sex: B6C3F1/FEMALE, Route: ORAL, Dose: 0, 700, 1400 PPM IN FEED FOR 104 WK (STUDY DURATION: 107 WK), Dose: 0, 700, 1400 PPM IN FEED FOR 104 WK (STUDY DURATION: 107 WK), Tumor Site: Type of Lesion: MAMMARY GLAND: MIXED TUMOR, MALIGNANT, MAMMARY GLAND: MIXED TUMOR, MALIGNANT OR ACINAR CELL CARCINOMA): active; positive
carcinogen call (Species: MOUSE, Strain/Sex: B6C3F1/MALE, Route: ORAL, Dose: 0, 700, 1400 PPM IN FEED FOR 104 WK (STUDY DURATION: 107 WK), Dose: 0, 700, 1400 PPM IN FEED FOR 104 WK (STUDY DURATION: 107 WK)): inactive; negative
carcinogen call (Species: RAT, Strain/Sex: F344/FEMALE, Route: ORAL, Dose: 0, 350, 700 PPM IN FEED FOR 103 WK (STUDY DURATION: 106 WK), Dose: 0, 350, 700 PPM IN FEED FOR 103 WK (STUDY DURATION: 106 WK)): inactive; negative
carcinogen call (Species: RAT, Strain/Sex: F344/MALE, Route: ORAL, Dose: 0, 350, 700 PPM IN FEED FOR 103 WK (STUDY DURATION: 106 WK), Dose: 0, 350, 700 PPM IN FEED FOR 103 WK (STUDY DURATION: 106 WK), Tumor Site: Type of Lesion: KIDNEY: RENAL TUBULE CELL ADENOMA OR ADENOCARCINOMA, BRAIN: MENINGIOMA): equivocal

Cc1cc(C(C)(C)C)c(O)c(C(C)(C)C)c1
carcinogen call (Species: MOUSE, Strain/Sex: B6C3F1/FEMALE, Route: ORAL, Dose: 0, 3000, 6000 PPM IN DIET, Dose: 0, 3000, 6000 PPM IN DIET): inactive; negative
carcinogen call (Species: MOUSE, Strain/Sex: B6C3F1/MALE,FEMALE, Route: ORAL, Dose: 200, 1000, 5000 PPM IN DIET FOR 96 WK, Dose: 200, 1000, 5000 PPM IN DIET FOR 96 WK): inactive; negative
carcinogen call (Species: MOUSE, Strain/Sex: B6C3F1/MALE, Route: ORAL, Dose: 0, 3000, 6000 PPM IN DIET, Dose: 0, 3000, 6000 PPM IN DIET): inactive; negative
carcinogen call (Species: RAT, Strain/Sex: F344/FEMALE, Route: ORAL, Dose: 0, 3000, 6000 PPM IN DIET, Dose: 0, 3000, 6000 PPM IN DIET): inactive; negative
carcinogen call (Species: RAT, Strain/Sex: F344/MALE, Route: ORAL, Dose: 0, 3000, 6000 PPM IN DIET, Dose: 0, 3000, 6000 PPM IN DIET): inactive; negative

OC1c2cc3ccc4ccccc4c3nc2C2OC2C1O (stereo not drawn)
carcinogen call (Species: MOUSE, Strain/Sex: SWISS/FEMALE, Route: INTRAPERITONEAL, Dose: 0, 1.05 UMOL GIVEN AS 150 NMOL IN 5 µL DMSO WITHIN 24 HR OF BIRTH, 300 NMOL IN 10 µL DMSO ON D 8 OF LIFE, AND 600 NMOL I): inactive; negative
carcinogen call (Species: MOUSE, Strain/Sex: SWISS/MALE, Route: INTRAPERITONEAL, Dose: 0, 1.05 UMOL GIVEN AS 150 NMOL IN 5 µL DMSO WITHIN 24 HR OF BIRTH, 300 NMOL IN 10 µL DMSO ON D 8 OF LIFE, AND 600 NMOL I): inactive; negative

[2H]c1c([2H])c([2H])c2c(C([2H])([2H])[2H])c3c(c([2H])c([2H])c4c([2H])c([2H])c([2H])c([2H])c43)c(C([2H])([2H])[2H])c2c1[2H]
carcinogen call (Species: MOUSE, Strain/Sex: SWISS/FEMALE, Route: SUBCUTANEOUS, Dose: IN OLIVE OIL 1/MO FOR 3 MO FOR A TOTAL DOSE OF 0, 1.5 MG (STUDY DURATION: 395 D), Tumor Site: Type of Lesion: INJECTION SITE: FIBROBLASTIC SARCOMA): active; positive
carcinogen call (Species: MOUSE, Strain/Sex: SWISS/MALE, Route: SUBCUTANEOUS, Dose: IN OLIVE OIL 1/MO FOR 3 MO FOR A TOTAL DOSE OF 0, 1.5 MG (STUDY DURATION: 395 D), Tumor Site: Type of Lesion: INJECTION SITE: FIBROBLASTIC SARCOMA): active; positive

CCCCOC(=O)c1ccc(O)cc1
carcinogen call (Species: MOUSE, Strain/Sex: ICR/FEMALE, Route: ORAL, Dose: 0, 0.15, 0.3, 0.6% IN DIET FOR 102 WK (STUDY DURATION: 106 WK), Dose: 0, 0.15, 0.3, 0.6% IN DIET FOR 102 WK (STUDY DURATION: 106 WK)): inactive; negative
carcinogen call (Species: MOUSE, Strain/Sex: ICR/MALE, Route: ORAL, Dose: 0, O.15, 0.3, 0.6% IN DIET FOR 102 WK (STUDY DURATION: 106 WK), Dose: 0, O.15, 0.3, 0.6% IN DIET FOR 102 WK (STUDY DURATION: 106 WK)): inactive; negative

CN(C)C=O
carcinogen call (Species: MOUSE, Strain/Sex: CRL:CD-1(ICR)BR/FEMALE, Route: INHALATION, Dose: 0, 25, 100, 400 PPM 6 HR/D 5 D/WK FOR 18 MO (STUDY DURATION: 18 MO), Dose: 0, 25, 100, 400 PPM 6 HR/D 5 D/WK FOR 18 MO (STUDY DURATION: 18 MO)): inactive; negative
carcinogen call (Species: MOUSE, Strain/Sex: CRL:CD-1(ICR)BR/MALE, Route: INHALATION, Dose: 0, 25, 100, 400 PPM 6 HR/D 5 D/WK FOR 18 MO (STUDY DURATION: 18 MO), Dose: 0, 25, 100, 400 PPM 6 HR/D 5 D/WK FOR 18 MO (STUDY DURATION: 18 MO)): inactive; negative
carcinogen call (Species: RAT, Strain/Sex: CRL:CD BR/FEMALE, Route: INHALATION, Dose: 0, 25, 100, 400 PPM 6 HR/D 5 D/WK FOR 24 MO (STUDY DURATION: 24 MO), Dose: 0, 25, 100, 400 PPM 6 HR/D 5 D/WK FOR 24 MO (STUDY DURATION: 24 MO)): inactive; negative
carcinogen call (Species: RAT, Strain/Sex: CRL:CD BR/MALE, Route: INHALATION, Dose: 0, 25, 100, 400 PPM 6 HR/D 5 D/WK FOR 24 MO (STUDY DURATION: 24 MO), Dose: 0, 25, 100, 400 PPM 6 HR/D 5 D/WK FOR 24 MO (STUDY DURATION: 24 MO)): inactive; negative

c1ccc2c(c1)ccc1nc3c(ccc4ccccc43)cc12
carcinogen call (Species: MOUSE, Route: DERMAL, Tumor Site: Type of Lesion: INTEGUMENTARY SYSTEM (SKIN)): active; positive
carcinogen call (Species: MOUSE, Route: SUBCUTANEOUS, Tumor Site: Type of Lesion: INJECTION SITE, LUNG): active; positive
carcinogen call (Species: RAT, Strain/Sex: OSBORNE-MENDEL/FEMALE, Route: LUNG IMPLANT, Dose: 0, 0.1, 0.3, 1.0 MG IN BEESWAX/TRICAPRYLIN (STUDY DURATION: LIFETIME), Dose: 0, 0.1, 0.3, 1.0 MG IN BEESWAX/TRICAPRYLIN (STUDY DURATION: LIFETIME), Tumor Site: Type of Lesion: LUNG: EPIDERMOID CARCINOMA): active; positive
